1 compound from paper PMC11117721, “A Fast-Binding, Functionally Reversible, COX-2 Radiotracer for CNS PET Imaging” (ACS Central Science, 2024) can be followed below.

Each structure is given as a SMILES string.

Series [1] has as its target T1, COX-2 (Homo sapiens, UniProt P35354).
T1 sequence (P35354 18-604): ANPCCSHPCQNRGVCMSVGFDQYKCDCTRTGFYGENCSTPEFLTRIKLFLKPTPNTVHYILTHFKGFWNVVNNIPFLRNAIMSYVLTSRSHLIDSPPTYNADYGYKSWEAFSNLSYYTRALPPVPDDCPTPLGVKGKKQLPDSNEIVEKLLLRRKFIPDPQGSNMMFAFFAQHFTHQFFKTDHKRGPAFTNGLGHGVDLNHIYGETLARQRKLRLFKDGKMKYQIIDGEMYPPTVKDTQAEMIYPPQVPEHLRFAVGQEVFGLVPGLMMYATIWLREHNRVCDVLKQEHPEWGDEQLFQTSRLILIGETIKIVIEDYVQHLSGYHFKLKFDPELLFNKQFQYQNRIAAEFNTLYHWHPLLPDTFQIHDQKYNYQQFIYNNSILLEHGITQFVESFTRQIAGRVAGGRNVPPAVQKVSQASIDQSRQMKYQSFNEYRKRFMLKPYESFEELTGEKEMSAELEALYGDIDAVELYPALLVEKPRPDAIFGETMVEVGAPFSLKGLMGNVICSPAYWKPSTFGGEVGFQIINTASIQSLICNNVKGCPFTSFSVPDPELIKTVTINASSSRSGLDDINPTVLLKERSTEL
The series can be described thus: PET imaging of h-Thy1 COX-2 transgenic mice. It is filed as in vivo, mouse. Set-up: FLAG; P2A linker remnant (GFP cassette co-expressed, separated by P2A); host or cells: rat striatal (caudate putamen) neurons transduced in vivo with AAV2, human synapsin promoter. Conditions: for SUV Average (9–21 min): h-Thy1 COX-2 mice (n = 5). The text has this:
(§1) We performed additional validation of [^11C]BRD1158 through in vivo PET imaging of an hCOX-2 transgenic mouse line (Figure 3), which overexpressed human COX-2 primarily in neurons (Strain No. 010703, Jackson Laboratories). […] While we did perform contralateral sham (control virus) injections in the AAV rats to assess potential injection confounds, as COX-2 is part of the injury and inflammation response, it was important to validate in a model naïve to brain insult to mitigate how aspects of the AAV rat experimental design could have misled our interpretations of tracer specific binding.
(§2) In accordance with Massachusetts General Hospital Institutional Animal Care and Use Committee (IACUC) protocols, Sprague Dawley rats (300-500g, Charles River Laboratories), wildtype mice (Strain C57BL/6J), and human Thy-1-COX-2 transgenic line 303 mice (Strain 010703, Jackson Laboratories) were used in these studies. All animals were housed in a standard animal facility with access to conventional rodent food and water ad libitum and a 12 -hour day/night schedule. All animals were allowed to acclimate before any experime ntal procedures. Only male animals were used for imaging experiments .
(§3) Animals were induced under anesthesia using 1 -3% isoflurane in a carrier of 1.0 -1.5 L/min oxygen.
(§4) Maintenance of isoflurane depended on procedure and species, rats 2 -3% and mice 1-2%. Rats undergoing surgeries had higher isoflurane maintenance at 3 -4%. After induction, the animals’ body temperatures were regulated using a support heating pad or fan throughout all experiments.
(§5) Respiratory rates and body temperature were monitored through all imaging and surgical procedures, generally using a respiratory pad and rectal probe. Injections were made through the lateral tail vein.
(§6) Rats were cannulated with an IV extension using a 60 in, 0.3 mL volume IV extender (Smith Medical) and a 24 ga x 0.75 in IV catheter (McKesson). Mice were cannulated with Intramedic PE10 tubing (BD […]
(§7) Group 2 animals then […]
received one 4µL ICV injection of AAV2-GFP-hCOX2 to the Rcpu and one 4µL ICV injection of AAV2-GFP to the Lcpu, an injection paradigm that successfully led to robust, localized, unilateral COX -2 expression that we could use to compare radiotracers (Figure 2, SI Figure 8). Another rat (animal ID SD2006080) received one 4µL ICV injection of AAV2-GFP-hCOX2 to the Rcpu and no left caudate sham injection (SI
Figure 9). All surgical procedures were performed aseptically. Once rats were prepared and secured with a stereotaxic device (Stoelting Co, Wood Dale, IL), bregma was located. […]
A 33 -gauge neuro syringe (Hamilton, Reno, NV) was inserted around DV 3.5 mm for one injection. I njections were given slowly and the needle was kept in for 15 min to allow for adequate perfusion. […]

Series [2] addresses T2, COX-2 (Mus musculus, UniProt Q05769).
T2 construct: from tissue; host or cells: brain of living wild-type mice (Strain C57BL/6J)
T2 sequence (Q05769 18-604): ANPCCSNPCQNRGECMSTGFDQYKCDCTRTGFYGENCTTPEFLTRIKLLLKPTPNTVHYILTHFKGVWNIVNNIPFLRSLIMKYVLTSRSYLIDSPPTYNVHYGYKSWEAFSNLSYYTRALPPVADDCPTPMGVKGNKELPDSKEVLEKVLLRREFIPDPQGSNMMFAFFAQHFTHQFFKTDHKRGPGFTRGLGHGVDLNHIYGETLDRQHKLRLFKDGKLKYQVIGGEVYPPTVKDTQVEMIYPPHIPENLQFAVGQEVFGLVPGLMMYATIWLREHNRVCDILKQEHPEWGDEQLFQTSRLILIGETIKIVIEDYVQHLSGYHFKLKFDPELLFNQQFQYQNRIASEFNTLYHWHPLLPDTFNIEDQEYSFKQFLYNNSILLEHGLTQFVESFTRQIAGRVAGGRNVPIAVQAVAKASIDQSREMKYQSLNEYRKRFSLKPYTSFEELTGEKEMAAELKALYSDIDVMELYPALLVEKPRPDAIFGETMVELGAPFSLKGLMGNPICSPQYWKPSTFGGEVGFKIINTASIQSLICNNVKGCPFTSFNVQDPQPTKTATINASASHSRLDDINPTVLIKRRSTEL
The series can be described thus: PET imaging of wild-type mice (controls). Type of series: in vivo. As to conditions: WT mice (n = 4).
Description: as §1, §2, §3, §4, §5, §6, §7

For `[11CH3]S(=O)(=O)c1ccc(-c2cccc(NCc3ccoc3)n2)cc1` [[^11C]BRD1158], the “SUV Average (9–21 min)” value is given as 1.84 ± 0.56 at COX-2 [1] (cerebellum); 1.68 ± 0.50 on COX-2 [1] (cortex); 1.95 ± 0.55 at COX-2 [1] (striatum); 0.376 ± 0.02 at COX-2 [2] (cerebellum); 0.359 ± 0.04 at COX-2 [2] (cortex); 0.385 ± 0.05 at COX-2 [2] (striatum). The “time to significant signal differentiation from wild-type controls” value at COX-2 [1] (hCOX-2 transgenic mice) fell in the range of 10 to 20 min.
